According to patent US9598667B2, “Use of metal ions for modulation of protein glycosylation profiles of recombinant proteins” (AbbVie, Inc., priority 2013, dated 2017):

Assays:
[1] = test system: N-glycan glycosylation profile of Antibody 1 expressed in CHO cells; assay: N-glycan oligosaccharide profile of Antibody 1 from shake flask culture (2-AB labelling, normal phase HPLC); settings: for galactosylation: Example 7
Source text: (§1) To test the effect of metal ions of protein glycosylation, recombinant Chinese Hamster Ovary (CHO) cell lines (CHO DUX-B11 origin based on a DHFR (dihydrofolate reductase) expression system) expressing two different humanized monoclonal antibodies (Antibody 1, Antibody 2) or a dual variable domain immunoglobulin (DVD-Ig) were shake flask cultured in chemically defined basal medium (CDBM) and chemically defined feed medium (CDFM) supplemented with selected iron compounds. The cell lines were serially expanded through separate seed train inoculums to generate enough cells for inoculation. All supplemented cultures were performed in triplicate unless otherwise indicated.
The glycosylation profile of the recombinantly expressed proteins was then determined using standard procedures. Approximately 200 μg of Protein A purified samples from Cell Lines 1 and 2 were then treated with N-glycanase at 37° C. overnight to remove the N-glycans from the protein. The protein was precipitated and the supernatant was taken for subsequent chemical derivatization of the reducing end of the released glycans with 2-aminobenzamide (2-AB) dye. Following the derivatization step, the excess labeled was removed using clean up cartridges and the samples were analyzed using normal phase HPLC with fluorescent detection. Mobile phase A was 100% acetonitrile and mobile phase B was 50 mM ammonium formate pH 4.4. The glycan were eluted from a polyamide column (Prozyme, Hayward, Calif.) using a shallow gradient. The labeled glycans were detected using a fluorescence detector with an excitation wavelength of 330 nm and an emission wavelength of 420 nm.
Concentrations of the respective iron compounds were chosen so as to minimize any potential adverse impacts on cell growth and productivity, but still facilitate a measurable impact on the glycoform profile. […] Cell culture process performance indicators were monitored and measured throughout the respective cultures. Viable cell density, cell viability, harvest titer, and harvest N-glycan oligosaccharide data was measured and reported.
By introducing iron to the culture via the feed medium, exposure to iron would be more gradual over the length of the culture. The impact to Antibody 1 was evaluated in triplicate shake flasks as described previously.
All evaluations were performed in triplicate in shake flasks with the cell line expressing Antibody 1.
The next set of experiments explored if iron transport into the cell or the galactose availability were the limiting factors. Recombinant transferrin (rTf) was added to triplicate shake flask cultures with the cell line expressing Antibody 1 with varying concentrations of ferric citrate. An independent experiment was performed with the same cell line to also determine if galactose supplementation in addition to iron and transferrin would enhance the galactosylation with triplicate shake flasks for each condition.

[2] = test system: CHO cell line expressing Antibody 2; assay: Shake flask fedbatch culture performance, cell line expressing Antibody 2; assay type: cell-based, Chinese Hamster; settings: 0.1 or 1.0 mM in basal medium; vs unsupplemented control
Source text: as §1
Absolute concentrations were assigned with respect to reference standard calibration curves.
The unsupplemented control was performed in duplicate.

[3] = test system: N-glycan glycosylation profile of DVD-Ig (DVD 1) expressed in CHO cells; assay: N-glycan oligosaccharide profile of DVD-Ig (DVD 1) from shake flask culture; assay type: cell-based, Chinese Hamster
Procedure: Sodium citrate was included to provide additional evidence that the impact to the oligosaccharide profile with the prior experiments was a result of the iron addition. All conditions were performed in triplicate.

[4] = test system: N-glycan glycosylation profile of Antibody 1; assay: N-glycan oligosaccharide profile of Antibody 1 in bioreactors; assay type: cell-based, Chinese Hamster; settings: pH 6.90, dissolved oxygen 40% air saturation, two independent experiments
Procedure: Prior experiments included iron supplementation in shake flask cultures. Experiments with the cell line expressing Antibody 1 and with a cell line expressing a different DVD-Ig (denoted DVD 2, also called ABT-122) than discussed previously were carried out to confirm the impact from iron supplements would be observed in bioreactors. Operating conditions were similar to shake flask experiments, but now included pH control at pH 6.90 and dissolved oxygen control at a setpoint of 40% air saturation. Antibody 1 bioreactors were run in triplicate with the exception of the 0.08 mM FC condition. DVD 2 bioreactors were run in duplicate.

[5] = Example 2, vs unsupplemented control

In the case of ferrous sulfate, the “increase in NA2F species” value [1, 5] is reported as 3 fold and the “increase in total NA1F species” value [1, 5] is reported as 3 fold.

With ferric citrate the “increase of peak viable cell density” value [2] was 4 ×10^6 cells/mL, the galactosylation ([3]; increased concentration (0.1, 1 mM)) was “increased galactosylation” and the “increase in total NA1F and NA2F species” value [4] was “dose-dependence effect”. The “N-glycan glycoform profile (overall result)” value ([1]; Example 2, concentration dependence below 1.0 mM) was “very similar results to ferric nitrate”.

“transferrin: Recombinant transferrin (rTf) added to shake flask cultures” was tested, and the galactosylation ([1]; added with varying concentrations of ferric citrate, without galactose) was “no impact was observed to the galactosylation”.

With O=C[C@H](O)[C@@H](O)[C@@H](O)[C@H](O)CO [galactose] the galactosylation ([1]; supplemented with iron (ferric citrate)) was “increased galactosylation is observed overall” and the “dose dependence of galactosylation” value ([1]; Example 8, galactose supplementation with ferric citrate) was “dose-dependence is observed”.

For O=C([O-])CC(O)(CC(=O)[O-])C(=O)[O-].[Na+].[Na+].[Na+] [Sodium citrate, reference compound], the “effect on oligosaccharide profile” value ([3]; 0.5 mM, vs unsupplemented control) was “no effect on the oligosaccharide profile”.
